Test results published in ChEMBL document CHEMBL6134843, “HDAC11 Inhibition as a Potential Therapeutic Strategy for AML: Target Identification, Lead Discovery, Antitumor Potency, and Mechanism Investigation” (J Med Chem, 2025).
Calls of active or inactive are those of the source. The calls are words filed in the database; no cut-off is given here.

How the values were obtained:
[1] = biological target: Histone deacetylase 4 (Homo sapiens, UniProt P56524); test: Inhibition of N-terminal GST-tagged C-terminal His-tagged human HDAC4 (627 to 1084 end residues) expressed in baculovirus expression system in Sf9 cells using Boc-Lys-(trifluoroacetyl)-AMC as substrate preincubated with enzyme for 1 hr followed by substrate addition and measured after 30 mins by fluorescence analysis
Sequence of Histone deacetylase 4 (P56524 whole entry): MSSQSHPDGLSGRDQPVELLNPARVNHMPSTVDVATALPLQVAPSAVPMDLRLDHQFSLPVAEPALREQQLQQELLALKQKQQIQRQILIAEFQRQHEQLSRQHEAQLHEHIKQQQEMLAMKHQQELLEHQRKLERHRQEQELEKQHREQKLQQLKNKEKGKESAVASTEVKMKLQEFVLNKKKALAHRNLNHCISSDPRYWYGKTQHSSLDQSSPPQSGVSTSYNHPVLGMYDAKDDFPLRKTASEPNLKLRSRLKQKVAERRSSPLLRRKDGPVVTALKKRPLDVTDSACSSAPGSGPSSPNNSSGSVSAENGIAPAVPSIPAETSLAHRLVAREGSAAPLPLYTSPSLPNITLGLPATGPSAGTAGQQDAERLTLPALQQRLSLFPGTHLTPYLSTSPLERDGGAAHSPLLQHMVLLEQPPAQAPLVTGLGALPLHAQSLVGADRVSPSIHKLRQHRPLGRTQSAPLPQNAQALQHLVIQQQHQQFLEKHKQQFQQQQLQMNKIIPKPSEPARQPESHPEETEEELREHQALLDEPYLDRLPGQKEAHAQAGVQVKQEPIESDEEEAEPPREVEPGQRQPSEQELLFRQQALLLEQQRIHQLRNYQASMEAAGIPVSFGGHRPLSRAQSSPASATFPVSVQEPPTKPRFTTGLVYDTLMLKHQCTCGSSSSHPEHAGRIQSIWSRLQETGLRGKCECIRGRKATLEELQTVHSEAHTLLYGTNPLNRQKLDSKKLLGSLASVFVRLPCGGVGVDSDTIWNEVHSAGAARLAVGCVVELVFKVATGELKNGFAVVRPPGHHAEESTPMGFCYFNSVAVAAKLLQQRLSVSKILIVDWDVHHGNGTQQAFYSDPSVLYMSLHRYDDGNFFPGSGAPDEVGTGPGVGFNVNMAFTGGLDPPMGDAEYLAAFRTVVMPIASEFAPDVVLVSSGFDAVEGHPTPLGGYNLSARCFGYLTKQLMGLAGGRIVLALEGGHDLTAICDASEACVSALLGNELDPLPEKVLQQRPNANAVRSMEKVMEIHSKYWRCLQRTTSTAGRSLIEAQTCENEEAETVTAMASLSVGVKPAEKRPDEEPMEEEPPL

[2] = tested on: THP-1; test: Antiproliferative activity against human THP-1 cells assessed as cell growth inhibition incubated for 2 days by CCK-8 assay; settings: THP-1, 48 h
[3] = tested on: OCI-AML2; test: Cytotoxicity against human OCI-AML2 cells assessed as cell growth inhibition at 5 uM incubated for 24 to 48 hrs by cell counting assay; type: functional, cell-based; settings: time 24-48 hrs
[4] = tested on: U-937; test: Induction of cell differentiation in human U-937 cells assessed as increase in CD11b expression at 5 uM incubated for 48 hrs by flow cytometry analysis; type: functional, cell-based
[5] = tested on: OCI-AML2; test: Induction of cell differentiation in human OCI-AML2 cells assessed as increase in CD14 expression at 5 uM incubated for 48 hrs by flow cytometry analysis; type: functional, cell-based
[6] = tested on: U-937; test: Induction of ferroptosis in human U-937 cells assessed as increase in lipid peroxidation level incubated for 48 hrs by C11-BODIPY 581/591 staining based flow cytometry analysis; type: functional, cell-based; settings: dose 2.5-10 µM
[7] = tested on: U-937; test: Induction of ferroptosis in human U-937 cells assessed as increase in cellular ROS level incubated for 48 hrs by DCFH-DA staining based flow cytometry analysis; type: functional, cell-based; settings: dose 2.5-10 µM
[8] = tested on: OCI-AML2; test: Induction of ferroptosis in human OCI-AML2 cells assessed as increase in cellular ROS level incubated for 48 hrs by DCFH-DA staining based flow cytometry analysis; type: functional, cell-based; settings: dose 2.5-10 µM
[9] = tested on: OCI-AML2; test: Induction of ferroptosis in human OCI-AML2 cells assessed as increase in malondialdehyde level at 5 uM incubated for 48 hrs; type: functional, cell-based
[10] = tested on: U-937; test: Induction of ferroptosis in human U-937 cells assessed as increase in malondialdehyde level at 5 uM incubated for 48 hrs in presence of ferrostatin-1; type: functional, cell-based
[11] = tested on: OCI-AML2; test: Induction of ferroptosis in human OCI-AML2 cells assessed as increase in ferrous ion accumulation at 100 uM incubated for 48 hrs by RhoNox-1 staining based flow cytometry analysis; type: functional, cell-based
[12] = biological target: Keap1/Nrf2 (Homo sapiens) (UniProt Q16236+Q14145); test: Activation of Keap1-Nrf2 signaling pathway in human U-937 cells assessed as upregulation of HMOX1 at 5 uM in presence of K67 by Western blot analysis; type: cell-based
Sequence of Keap1/Nrf2 (Homo sapiens) (Q14145 whole entry, looked up): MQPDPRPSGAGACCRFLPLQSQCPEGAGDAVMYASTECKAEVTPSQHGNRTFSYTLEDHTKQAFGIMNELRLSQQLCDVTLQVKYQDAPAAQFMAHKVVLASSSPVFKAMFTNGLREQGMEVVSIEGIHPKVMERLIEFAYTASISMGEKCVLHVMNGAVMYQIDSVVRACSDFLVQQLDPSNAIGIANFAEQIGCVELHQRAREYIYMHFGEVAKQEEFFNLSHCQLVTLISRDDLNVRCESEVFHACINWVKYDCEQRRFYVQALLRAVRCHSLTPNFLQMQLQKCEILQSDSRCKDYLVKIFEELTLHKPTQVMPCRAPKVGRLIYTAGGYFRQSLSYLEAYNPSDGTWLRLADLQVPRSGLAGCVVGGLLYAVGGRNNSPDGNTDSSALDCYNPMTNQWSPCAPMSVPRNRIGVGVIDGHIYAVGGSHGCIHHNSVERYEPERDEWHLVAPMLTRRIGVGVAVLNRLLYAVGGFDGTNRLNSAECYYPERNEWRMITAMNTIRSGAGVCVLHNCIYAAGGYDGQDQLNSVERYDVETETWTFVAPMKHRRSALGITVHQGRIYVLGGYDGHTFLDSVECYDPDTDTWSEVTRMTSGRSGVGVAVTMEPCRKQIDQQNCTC
Sequence of Keap1/Nrf2 (Homo sapiens) (Q16236 whole entry, looked up): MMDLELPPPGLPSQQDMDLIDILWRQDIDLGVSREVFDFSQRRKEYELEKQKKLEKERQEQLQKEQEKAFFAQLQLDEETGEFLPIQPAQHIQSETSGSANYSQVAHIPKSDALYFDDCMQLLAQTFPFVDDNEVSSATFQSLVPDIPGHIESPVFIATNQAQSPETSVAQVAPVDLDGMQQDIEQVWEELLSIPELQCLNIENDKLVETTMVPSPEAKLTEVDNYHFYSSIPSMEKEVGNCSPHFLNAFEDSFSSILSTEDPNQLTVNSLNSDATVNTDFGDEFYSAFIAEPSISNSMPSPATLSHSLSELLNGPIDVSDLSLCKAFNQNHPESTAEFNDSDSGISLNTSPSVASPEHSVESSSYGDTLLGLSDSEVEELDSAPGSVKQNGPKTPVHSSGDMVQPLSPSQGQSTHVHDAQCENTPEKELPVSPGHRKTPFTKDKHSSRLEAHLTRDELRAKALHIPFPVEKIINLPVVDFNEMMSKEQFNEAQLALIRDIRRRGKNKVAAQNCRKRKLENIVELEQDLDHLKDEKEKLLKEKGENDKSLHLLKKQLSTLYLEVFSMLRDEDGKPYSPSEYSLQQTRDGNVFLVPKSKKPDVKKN

[13] = tested on: MLL-AF9; test: Synergistic antitumor activity against mouse MLL-AF9 at 1 to 4 uM in presence of cytarabine by CCK-8 assay; type: functional, cell-based; settings: dose 1-4 µM
[14] = AUC (0 to infinity) in ICR(CD-1) mouse at 5 mg/kg, iv treated up to 24 hrs by LC-MS/MS analysis; type: ADME, organism-based; settings: in vivo
[15] = AUC (0 to infinity) in ICR(CD-1) mouse at 50 mg/kg, ip treated up to 24 hrs by LC-MS/MS analysis; type: ADME, organism-based; settings: in vivo
[16] = Antitumor activity against mouse MLL-AF9 cells allografted in female C57BL/6 mouse model assessed as GFP positive leukemic cells in peripheral blood at 50 mg/kg, ip administered once daily for 26 days in presence of cytarabine by FITC staining based analysis (reference value: 30.6 %); type: functional; settings: time 26 day
[17] = tested on: MLL-AF9; test: Antitumor activity against mouse MLL-AF9 cells allografted in female C57BL/6 mouse model assessed as reduction in hepatomegaly at 50 mg/kg, ip administered once daily for 23 days; type: functional, organism-based; settings: time 23.0 day

## O=C(NO)c1cccc2[nH]c(C#Cc3cccc(C(F)(F)F)c3)cc12
[1]
  IC50: > 100 µM
[2]
  IC50: ≤ 10 µM
[3]
  Activity: Active
[4]
  Activity: Active
[5]
  Activity: Active
[6]
  Activity: Dose-dependent-effect
[7]
  Activity: Dose-dependent-effect
[8]
  Activity: Dose-dependent-effect
[9]
  Activity: Active
[10]
  Activity: inactive
[11]
  Activity: Active
[12]
  Activity: inactive
[13]
  Activity: Active
[14]
  AUC(0-inf): 625 ng·h/mL
[15]
  AUC(0-inf): 2000 ng·h/mL
[16]
  Activity: 1.74%
[17]
  Activity: Active
